{
  "source": "ChEMBL document CHEMBL4118205",
  "about": "“Design, synthesis and biological evaluation of artemisinin derivatives containing fluorine atoms as anticancer agents” (Bioorg Med Chem Lett, 2018)",
  "key": {"MCF7 [1]": {"system": "MCF7", "test": "Cell cycle arrest in human MCF7 cells assessed as accumulation at G2 phase at 2.5 uM after 48 hrs by propidium iodide staining based flow cytometry (reference value: 13.24%)", "format": "functional"}, "MCF7 [2]": {"system": "MCF7", "test": "Induction of apoptosis in human MCF7 cells assessed as viable cells at 5 uM after 48 hrs by Annexin-V FITC/propidium iodide staining based flow cytometry (reference value: 88.59%)", "format": "functional", "conditions": "MCF7, 48 h, read-out: Activity"}, "MCF7 [3]": {"system": "MCF7", "test": "Induction of apoptosis in human MCF7 cells assessed as late apoptotic cells at 20 uM after 48 hrs by Annexin-V FITC/propidium iodide staining based flow cytometry (reference value: 6.22%)", "format": "functional"}, "MCF7 [4]": {"system": "MCF7", "test": "Cell cycle arrest in human MCF7 cells assessed as accumulation at G1 phase at 0.5 uM after 48 hrs by propidium iodide staining based flow cytometry (reference value: 45.21%)", "format": "functional"}, "MCF7 [5]": {"system": "MCF7", "test": "Cell cycle arrest in human MCF7 cells assessed as accumulation at G1 phase after 48 hrs by propidium iodide staining based flow cytometry", "format": "functional"}, "MCF7 [6]": {"system": "MCF7", "test": "Induction of apoptosis in human MCF7 cells assessed as necrotic cells at 20 uM after 48 hrs by Annexin-V FITC/propidium iodide staining based flow cytometry (reference value: 4.69%)", "format": "functional"}, "MCF7 [7]": {"system": "MCF7", "test": "Induction of apoptosis in human MCF7 cells assessed as early apoptotic cells at 5 uM after 48 hrs by Annexin-V FITC/propidium iodide staining based flow cytometry (reference value: 0.50%)", "format": "functional"}, "MCF7 [8]": {"system": "MCF7", "test": "Cell cycle arrest in human MCF7 cells assessed as accumulation at G1 phase at 2.5 uM after 48 hrs by propidium iodide staining based flow cytometry (reference value: 45.21%)", "format": "functional"}, "L02": {"system": "L02", "test": "Cytotoxicity against human L02 cells assessed as reduction in cell viability after 72 hrs by MTT assay", "format": "functional, cell-based", "conditions": "L02, 72 h"}, "MCF7 [9]": {"system": "MCF7", "test": "Induction of apoptosis in human MCF7 cells assessed as late apoptotic cells at 5 uM after 48 hrs by Annexin-V FITC/propidium iodide staining based flow cytometry (reference value: 6.22%)", "format": "functional"}},
  "data": [
    {"smiles": "C[C@H]1[C@H](N2CCN(C(=O)Nc3ccc(OC(F)(F)F)cc3)CC2)O[C@@H]2O[C@@]3(C)CC[C@H]4[C@H](C)CC[C@@H]1[C@@]24OO3", "values": [
      {"measurement": "Activity", "setting": "MCF7 [1]", "result": 9.18, "unit": "%"},
      {"measurement": "viability at 5 µM", "setting": "MCF7 [2]", "result": 43.5, "unit": "%"},
      {"measurement": "Activity", "setting": "MCF7 [3]", "result": 68.8, "unit": "%"},
      {"measurement": "Activity", "setting": "MCF7 [4]", "result": 47.95, "unit": "%"},
      {"measurement": "Activity", "setting": "MCF7 [5]", "result": "Dose-dependent effect"},
      {"measurement": "Activity", "setting": "MCF7 [6]", "result": 10.18, "unit": "%"},
      {"measurement": "Activity", "setting": "MCF7 [7]", "result": 1.38, "unit": "%"},
      {"measurement": "Activity", "setting": "MCF7 [8]", "result": 64.46, "unit": "%"},
      {"measurement": "IC50", "setting": "L02", "result": 6.7, "unit": "µM"},
      {"measurement": "Activity", "setting": "MCF7 [9]", "result": 33.62, "unit": "%"}
    ]}
  ]
}
